Assay results as given in patent US7135466B2 (Kirin Beer Kabushiki Kaisha, priority 1999, dated 2006).

Tests used:
PDGF-Ra = biological target: T1, PDGF-Ra (Homo sapiens, UniProt P16234); test: Inhibitory activity against PDGF-Ra phosphorylation by PDGF-AA stimulation using G292; format: cell-based; settings: for IC50: Pharmacological Test Example 1, > means inhibition at indicated concentration not more than 50%, < and << not less than 50%, read-out: PDGF (E) IC50; for inhibition at 0.1 µM: G292, figure in parentheses in >100( ), at 100 nM, read-out: PDGF (E) inhibition (%) at 100 nM
T1 construct: host or cells: G-292 human osteosarcoma cells
T1 sequence (P16234 24-1089): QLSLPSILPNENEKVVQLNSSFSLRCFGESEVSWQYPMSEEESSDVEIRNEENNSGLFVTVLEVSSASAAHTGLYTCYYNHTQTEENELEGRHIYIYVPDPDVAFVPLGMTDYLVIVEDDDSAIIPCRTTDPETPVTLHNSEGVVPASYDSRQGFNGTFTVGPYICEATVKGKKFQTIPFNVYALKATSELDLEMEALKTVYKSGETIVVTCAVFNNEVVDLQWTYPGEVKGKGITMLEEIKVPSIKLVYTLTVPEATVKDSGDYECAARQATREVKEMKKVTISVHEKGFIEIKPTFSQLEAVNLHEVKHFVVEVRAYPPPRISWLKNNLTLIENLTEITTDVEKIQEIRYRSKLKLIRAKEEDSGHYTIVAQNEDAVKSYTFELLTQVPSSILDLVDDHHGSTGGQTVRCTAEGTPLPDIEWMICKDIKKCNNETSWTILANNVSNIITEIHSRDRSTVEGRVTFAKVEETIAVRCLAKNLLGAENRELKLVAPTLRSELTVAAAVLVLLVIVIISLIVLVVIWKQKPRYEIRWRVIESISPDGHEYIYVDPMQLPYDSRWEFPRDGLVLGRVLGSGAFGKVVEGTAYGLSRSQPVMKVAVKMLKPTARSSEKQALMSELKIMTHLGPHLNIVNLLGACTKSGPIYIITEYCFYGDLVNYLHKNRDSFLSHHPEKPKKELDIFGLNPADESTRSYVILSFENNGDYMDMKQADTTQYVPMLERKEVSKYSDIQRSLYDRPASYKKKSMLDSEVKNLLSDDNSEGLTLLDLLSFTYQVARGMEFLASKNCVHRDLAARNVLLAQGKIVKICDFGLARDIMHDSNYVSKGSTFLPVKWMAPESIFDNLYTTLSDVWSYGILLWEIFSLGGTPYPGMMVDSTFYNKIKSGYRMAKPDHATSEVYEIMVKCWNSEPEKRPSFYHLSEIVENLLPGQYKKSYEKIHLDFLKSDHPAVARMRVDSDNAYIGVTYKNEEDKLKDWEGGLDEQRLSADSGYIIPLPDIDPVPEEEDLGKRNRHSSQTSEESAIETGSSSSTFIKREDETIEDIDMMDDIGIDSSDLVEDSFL
Outline: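 Cells seeded in low-serum medium are exposed to test compound for one hour, then PDGF-AA (50 ng/ml) triggers receptor phosphorylation for 5 min at 37 °C. Phospho-PDGF-Ra in solubilized cells is quantified by anti-phosphotyrosine capture ELISA at 450 nm.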

c-kit = biological target: T2, c-kit (Homo sapiens, UniProt P10721); test: Inhibitory activity against c-kit autophosphorylation (MO7e cells, h-SCF); format: cell-based; settings: MO7e cells, h-SCF 50 ng/ml; read-out: c-kit IC50
T2 construct: MO7e (human megakaryocytic leukemia cell line) which had been arrested for 20 hr; endogenous in cells; host or cells: MO7e human megakaryocytic leukemia cell line
T2 sequence (P10721 26-976): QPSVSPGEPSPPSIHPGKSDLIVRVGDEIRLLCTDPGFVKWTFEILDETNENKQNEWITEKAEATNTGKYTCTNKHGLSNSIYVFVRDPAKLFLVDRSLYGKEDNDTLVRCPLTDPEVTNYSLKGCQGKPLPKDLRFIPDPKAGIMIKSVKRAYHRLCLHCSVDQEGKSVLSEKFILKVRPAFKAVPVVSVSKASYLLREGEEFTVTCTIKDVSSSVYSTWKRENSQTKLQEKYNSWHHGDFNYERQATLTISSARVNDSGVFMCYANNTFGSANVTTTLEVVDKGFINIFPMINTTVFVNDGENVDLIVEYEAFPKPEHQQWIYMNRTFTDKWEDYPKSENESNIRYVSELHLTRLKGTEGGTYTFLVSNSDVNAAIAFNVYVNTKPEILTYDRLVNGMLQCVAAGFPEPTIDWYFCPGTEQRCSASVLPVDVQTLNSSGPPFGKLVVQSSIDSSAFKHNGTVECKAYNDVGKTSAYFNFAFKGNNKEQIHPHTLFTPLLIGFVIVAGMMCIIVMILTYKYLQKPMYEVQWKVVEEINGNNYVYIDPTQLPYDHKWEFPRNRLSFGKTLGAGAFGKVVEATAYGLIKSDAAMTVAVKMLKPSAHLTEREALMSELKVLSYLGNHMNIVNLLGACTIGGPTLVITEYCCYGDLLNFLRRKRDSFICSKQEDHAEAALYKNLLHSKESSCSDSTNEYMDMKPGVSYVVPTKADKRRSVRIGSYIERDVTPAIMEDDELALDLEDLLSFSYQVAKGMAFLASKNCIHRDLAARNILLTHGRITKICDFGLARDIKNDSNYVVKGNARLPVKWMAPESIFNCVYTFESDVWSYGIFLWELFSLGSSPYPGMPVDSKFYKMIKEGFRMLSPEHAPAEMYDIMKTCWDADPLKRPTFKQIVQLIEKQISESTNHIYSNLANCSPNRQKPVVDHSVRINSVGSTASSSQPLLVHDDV
Outline: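 First, human megakaryocytic leukemia MO7e cells arrested 20 hr receive compound for one hour. Second, SCF stimulation (50 ng/ml) runs 5 min, after which cells are solubilized. Third, tyrosine-phosphorylated c-kit in the lysate is quantified by sandwich ELISA with absorbance at 450 nm.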

IC50 (PDGF-Ra) | IC50 (c-kit) | inhibition at 0.1 µM (PDGF-Ra) | Compound | PDGF (E) inhibition (%) in >30( ) (PDGF-Ra; figure in parentheses in >30( ), concentration not defined, presumably 30 nM)
16 nM | 95 nM | – | COc1cc2ncnc(Oc3ccc(NC(=O)OCCOc4cccc(F)c4)cc3)c2cc1OC [Example 210, 2-(3-Fluorophenoxy)ethyl N-{4-[(6,7-dimethoxy-4-quinazolinyl)oxy]phenyl}carbamate] | –
17 nM | 43 nM | – | COc1cc2ncnc(Oc3ccc(NC(=O)OCCCOc4ccccc4Cl)c(C)c3C)c2cc1OC [Example 211, 3-(2-Chlorophenoxy)propyl N-{4-[(6,7-dimethoxy-4-quinazolinyl)oxy]-2,3-dimethylphenyl}-carbamate] | –
28 nM | 70 nM | – | COc1cc2ncnc(Oc3ccc(NC(=O)OCCCOc4cccc(Cl)c4)c(C)c3C)c2cc1OC [Example 212, 3-(3-Chlorophenoxy)propyl N-{4-[(6,7-dimethoxy-4-quinazolinyl)oxy]-2,3-dimethylphenyl}carbamate] | –
21 nM | 61 nM | – | COc1cc2ncnc(Oc3ccc(NC(=O)OCCCOc4ccc(Cl)cc4)c(C)c3C)c2cc1OC [Example 213, 3-(4-Chlorophenoxy)propyl N-{4-[(6,7-dimethoxy-4-quinazolinyl)oxy]-2,3-dimethylphenyl}-carbamate] | –
8 nM | < 30 nM | – | CCCOC(=O)Nc1ccc(Oc2ccnc3cc(OC)c(OC)cc23)c(C)c1C [Example 215, Propyl N-{4-[(6,7-Dimethoxy-4-quinolin)oxy]-2,3-dimethylphenyl}carbamate] | –
8 nM | 111 nM | – | COc1cc2nccc(Oc3ccc(NC(=O)OC4CCCCC4)cc3)c2cc1OC [Example 230, Cyclohexyl N-{4-[(6,7-dimethoxy-4-quinolyl)oxy]phenyl}carbamate] | –
1 nM | 86 nM | – | COc1cc2nccc(Oc3ccc(NC(=O)OCc4ccccc4)cc3)c2cc1OC [Example 231, Benzyl N-{4-[(6,7-dimethoxy-4-quinolyl)oxy]phenyl}carbamate] | –
11 nM | 42 nM | – | COc1cc2nccc(Oc3ccc(NC(=O)OCc4ccccc4C)c(C)c3C)c2cc1OC [Example 232, 2-Methylbenzyl N-{4-[(6,7-dimethoxy-4-quinolyl)oxy]-2,3-dimethylphenyl}carbamate] | –
8 nM | 52 nM | – | COc1cc2nccc(Oc3ccc(NC(=O)OCc4cccc(C)c4)c(C)c3C)c2cc1OC [Example 233, 3-Methylbenzyl N-{4-[(6,7-dimethoxy-4-quinolyl)oxy]-2,3-dimethylphenyl}carbamate] | –
10 nM | 46 nM | – | COc1cc2nccc(Oc3ccc(NC(=O)OCc4ccc(C)cc4)c(C)c3C)c2cc1OC [Example 234, 4-Methylbenzyl N-{4-[(6,7-dimethoxy-4-quinolyl)oxy]-2,3-dimethylphenyl}carbamate] | –
< 3 nM | 57 nM | – | COc1cc2nccc(Oc3ccc(NC(=O)OCc4ccccc4Cl)c(C)c3C)c2cc1OC [Example 235, 2-Chlorobenzyl N-{4-[(6,7-dimethoxy-4-quinolyl)oxy]-2,3-dimethylphenyl}carbamate] | –
4 nM | 47 nM | – | COc1cc2nccc(Oc3ccc(NC(=O)OCc4cccc(Cl)c4)c(C)c3C)c2cc1OC [Example 236, 3-Chlorobenzyl N-{4-[(6,7-dimethoxy-4-quinolyl)oxy]-2,3-dimethylphenyl}carbamate] | –
6 nM | 42 nM | – | COc1cc2nccc(Oc3ccc(NC(=O)OCc4ccc(Cl)cc4)c(C)c3C)c2cc1OC [Example 237, 4-Chlorobenzyl N-{4-[(6,7-dimethoxy-4-quinolyl)oxy]-2,3-dimethylphenyl}carbamate] | –
10 nM | 36 nM | – | COc1cccc(COC(=O)Nc2ccc(Oc3ccnc4cc(OC)c(OC)cc34)c(C)c2C)c1 [Example 238, 3-Methoxybenzyl N-{4-[(6,7-dimethoxy-4-quinolyl)oxy]-2,3-dimethylphenyl}carbamate] | –
9 nM | 183 nM | – | COc1ccccc1COC(=O)Nc1cc(C)c(Oc2ccnc3cc(OC)c(OC)cc23)cc1C [Example 239, 2-Methoxybenzyl N-{4-[(6,7-dimethoxy-4-quinolyl)oxy]-2,5-dimethylphenyl}carbamate] | –
17 nM | 248 nM | – | COc1cccc(COC(=O)Nc2cc(C)c(Oc3ccnc4cc(OC)c(OC)cc34)cc2C)c1 [Example 240, 3-Methoxybenzyl N-{4-[(6,7-dimethoxy-4-quinolyl)oxy]-2,5-dimethylphenyl}carbamate] | –
12 nM | 232 nM | – | COc1cc2nccc(Oc3cc(C)c(NC(=O)OCc4ccccc4Cl)cc3C)c2cc1OC [Example 241, 2-Chlorobenzyl N-{4-[(6,7-dimethoxy-4-quinolyl)oxy]-2,5-dimethylphenyl}carbamate] | –

IC50 (PDGF-Ra) | IC50 (c-kit) | inhibition at 0.1 µM (PDGF-Ra) | Compound | PDGF (E) inhibition (%) in >30( ) (PDGF-Ra; figure in parentheses in >30( ), concentration not defined, presumably 30 nM)
21 nM | 192 nM | – | COc1cc2nccc(Oc3cc(C)c(NC(=O)OCc4cccc(Cl)c4)cc3C)c2cc1OC [Example 242, 3-Chlorobenzyl N-{4-[(6,7-dimethoxy-4-quinolyl)oxy]-2,5-dimethylphenyl}carbamate] | –
20 nM | 190 nM | – | COc1cc2nccc(Oc3cc(C)c(NC(=O)OCc4ccc(Cl)cc4)cc3C)c2cc1OC [Example 243, 4-Chlorobenzyl N-{4-[(6,7-dimethoxy-4-quinolyl)oxy]-2,5-dimethylphenyl}carbamate] | –
27 nM | 69 nM | – | CCCOC(=O)Nc1cc(C)c(Oc2ccnc3cc(OC)c(OC)cc23)cc1C [Example 244, Propyl N-{4-[(6,7-dimethoxy-4-quinolyl)oxy]-2,5-dimethylphenyl}carbamate] | –
16 nM | 408 nM | – | COc1cc2nccc(Oc3cc(C)c(NC(=O)OCc4ccccc4C)cc3C)c2cc1OC [Example 245, 2-Methylbenzyl N-{4-[(6,7-dimethoxy-4-quinolyl)oxy]-2,5-dimethylphenyl}carbamate] | –
58 nM | 243 nM | – | COc1cc2nccc(Oc3cc(C)c(NC(=O)OCc4ccc5ccccc5c4)cc3C)c2cc1OC [Example 246, 2-Naphthylmethyl N-{4-[(6,7-dimethoxy-4-quinolyl)oxy]-2,5-dimethylphenyl}carbamate] | –
3 nM | 40 nM | – | CCCOC(=O)Nc1ccc(Oc2ccnc3cc(OC)c(OC)cc23)cc1 [Example 247, Propyl N-{4-[(6,7-dimethoxy-4-quinolyl)oxy]phenyl}carbamate] | –
11 nM | 147 nM | – | COc1ccccc1COC(=O)Nc1ccc(Oc2ccnc3cc(OC)c(OC)cc23)cc1 [Example 248, 2-Methoxybenzyl N-{4-[(6,7-dimethoxy-4-quinolyl)oxy]phenyl}carbamate] | –
4 nM | 57 nM | – | COc1ccc(COC(=O)Nc2ccc(Oc3ccnc4cc(OC)c(OC)cc34)cc2)cc1 [Example 249, 4-Methoxybenzyl N-{4-[(6,7-dimethoxy-4-quinolyl)oxy]phenyl}carbamate] | –
4 nM | 184 nM | – | COc1cc2nccc(Oc3ccc(NC(=O)OCc4ccccc4C)cc3)c2cc1OC [Example 250, 2-Methylbenzyl N-{4-[(6,7-dimethoxy-4-quinolyl)oxy]phenyl}carbamate] | –
6 nM | 185 nM | – | COc1cc2nccc(Oc3ccc(NC(=O)OCc4cccc(C)c4)cc3)c2cc1OC [Example 251, 3-Methylbenzyl N-{4-[(6,7-dimethoxy-4-quinolyl)oxy]phenyl}carbamate] | –
6 nM | 111 nM | – | COc1cc2nccc(Oc3ccc(NC(=O)OCc4ccc(C)cc4)cc3)c2cc1OC [Example 252, 4-Methylbenzyl N-{4-[(6,7-dimethoxy-4-quinolyl)oxy]phenyl}carbamate] | –
17 nM | 514 nM | – | COc1cc2nccc(Oc3cc(C)c(NC(=O)OCc4ccccc4C)cc3C)c2cc1OC [Example 253, 2-Methylbenzyl N-{4-[(6,7-dimethoxy-4-quinolyl)oxy]-2,5-dimethylphenyl}carbamate] | –
> 100 nM | 396 nM | 27% | COc1cc2nccc(Oc3cc(C)c(NC(=O)OCc4cccc(C)c4)cc3C)c2cc1OC [Example 254, 3-Methylbenzyl N-{4-[(6,7-dimethoxy-4-quinolyl)oxy]-2,5-dimethylphenyl}carbamate] | –
> 100 nM | 309 nM | 36% | COc1cc2nccc(Oc3cc(C)c(NC(=O)OCc4ccc(C)cc4)cc3C)c2cc1OC [Example 255, 4-Methylbenzyl N-{4-[(6,7-dimethoxy-4-quinolyl)oxy]-2,5-dimethylphenyl}carbamate] | –
< 3 nM | 15 nM | – | CCCCCCOC(=O)Nc1ccc(Oc2ccnc3cc(OC)c(OC)cc23)cc1 [Example 256, Hexyl N-{4-[(6,7-dimethoxy-4-quinolyl)oxy]phenyl}carbamate] | –
3 nM | 178 nM | – | CCCC(CC)OC(=O)Nc1ccc(Oc2ccnc3cc(OC)c(OC)cc23)cc1 (stereo not shown) [Example 258, 1-Ethylbutyl N-{4-[(6,7-dimethoxy-4-quinolyl)oxy]phenyl}carbamate] | –

Compound | IC50 (PDGF-Ra) | IC50 (c-kit) | inhibition at 0.1 µM (PDGF-Ra) | PDGF (E) inhibition (%) in >30( ) (PDGF-Ra; figure in parentheses in >30( ), concentration not defined, presumably 30 nM)
COc1cccc(OC(=O)Nc2ccc(Oc3ccnc4cc(OC)c(OC)cc34)cc2)c1 [Example 214, 3-Methoxyphenyl N-{4-[(6,7-dimethoxy-4-quinolyl)oxy]phenyl}carbamate] | > 30 nM | 47 nM | – | 6%
CCCCc1ccc(OC(=O)Nc2ccc(Oc3ccnc4cc(OC)c(OC)cc34)cc2)cc1 [Example 257, 4-Butylphenyl N-{4-[(6,7-dimethoxy-4-quinolyl)oxy]phenyl}carbamate] | 6 nM | 22 nM | – | –
